Reference: ChEMBL document CHEMBL1149863, “Phenolic glycosides from berries of Pimenta dioica” (J Nat Prod, 2008)

Test: DPPH radical scavenging activity after 180 mins
Type: functional

| IC50 | SMILES |
| --- | --- |
| 27.5 µM | C=CCc1ccc(O)c(OC)c1 [EUGENOL] |
| 15 µM | C=CCc1cc(OC)c(O)c(O[C@@H]2O[C@H](COC(=O)/C=C/c3cc(OC)c(O)c(OC)c3)[C@@H](O)[C@H](O)[C@H]2O)c1 |
| 10.5 µM | CC1=CC[C@@H](C(C)(C)O[C@@H]2O[C@H](CO[C@@H]3O[C@@H](CO)[C@H](O)[C@H]3OC(=O)c3cc(O)c(O)c(O)c3)[C@@H](O)[C@H](O)[C@H]2O)CC1 |
| 11.2 µM | O=C(O)C[C@H]1CCC(=O)[C@@H]1C/C=C\CCO[C@@H]1O[C@H](COC(=O)c2cc(O)c(O)c(O)c2)[C@@H](O)[C@H](O)[C@H]1O |
| 25.7 µM | COc1cc(/C=C/C(=O)O)cc(OC)c1O [SINAPINATE] |
| 11.6 µM | CC1=CC[C@H](C(C)(C)O[C@@H]2O[C@H](CO[C@@H]3O[C@@H](CO)[C@H](O)[C@H]3OC(=O)c3cc(O)c(O)c(O)c3)[C@@H](O)[C@H](O)[C@H]2O)CC1 |

| SMILES | IC50 |
| --- | --- |
| O=C(O)c1cc(O)c(O)c(O)c1 [GALLIC ACID] | 8 µM |
